Experimental data from patent US20200360260A1, “TOPICAL COMPOSITION COMPRISING ANTIMICROBIAL LIPID” (Conopco, Inc., d/b/a UNILEVER, priority 2017, published 2020).

Columns and labels:
Type in all cases: cell-based
Settings in all cases: for combined effect with AMLs: in combination with AMLs
M. furfur (CBS1878) = assay: ΣFIC assay against M. furfur
Description: (§1) Method: ΣFIC Assay Against M. Furfur, S. Aureus and P Acnes
(§2) M. furfur (CBS1878) was inoculated into Pityrosporum Broth (PB, solution A) and incubated in a shaking incubator at 32° C. for 2 days. The suspension containing the microbe was then diluted 10-times by PB and incubated again at 32° C. for another 2 days. The inoculum was further diluted by PB to get around 10^4 cells /ml. S. aureus (ATCC 12600) was inoculated into Tryptone Soya Broth (TSB, Oxoid: CM0129) and incubated in a shaking incubator at 37° C. for 1 day. The suspension containing the microbe was then diluted 10-times with TSB and incubated again at 37° C. for another 1 day. The inoculum was further diluted by TSB to get around 10^5 cells/ml.
(§3) Honokiol (Ex. Sigma) 50 mg/ml in DMSO (50,000 ppm); Magnolol (Ex. Sigma) 50 mg/ml in DMSO (50,000 ppm); Sapienic acid (Ex. Parchem, CAS# 17004-51-2) 100 mg/ml in 100% ethanol (100,000 ppm); D-Sphingosine (Ex. Sigma S7049) 5 mg/ml in 50% ethanol (5,000 ppm); D-erythro-Dihydrosphingosine (Ex. Sigma D3314) 5 mg/ml in 50% ethanol (5,000 ppm); Phytosphingosine (Ex. Evonik) 5 mg/m stock in 50% ethanol (5,000 ppm); Palmitoleic acid (Ex. Sigma 76169) 100 mg/ml in 100% ethanol (100,000 ppm).
(§4) The ΣFIC test was conducted based on the principle previously described in Hall M J, Middleton R F, & Westmacott D (1983), The fractional inhibitory concentration (FIC) index as a measure of synergy. Journal of Antimicrobial Chemotherapy 11(5):427-433. The procedure is as follows:
(§5) Twenty (20) μl of compound A (honokiol or magnolol as applicable to the test) and 20 μl of compound B (a selection of different AMLs as applicable to the test) were mixed in corresponding wells of a 96-well plate. An amount of 160 μl of microbial suspension was dispensed in each well and the broth medium as taken as a blank control for comparison of results. The total reaction volume in each well was 200 μl.
(§6) Thereafter the 96-well plates were incubated in an incubator. In accordance with the test protocols that were followed, M. furfur was incubated aerobically at 32° C. for 1 day, S. aureus was incubated aerobically at 37° C. for 1 day and P. acnes was incubated anaerobically at 37° C. for 4 days. Thereafter 20 μl alamar blue (0.1%) was dispensed in each well and the procedure of incubation (as abovementioned) was repeated. Finally, the change in colour of the indicator was monitored to check for visible signs of microbial growth or inhibition of the growth. If the colour changed to red it indicated growth (of microbes) and blue indicated no growth or inhibition of growth.
(§7) After all the observations were recorded and tabulated, the Fractional Inhibition Concentration (FIC) was calculated. The combination effect of inhibitory antimicrobials is widely explored using the concept of the Fractional Concentration (FC) and Fractional Inhibitory Concentration (FIC). This parameter is defined as follows:
(§8) ΣFIC=FIC (component 1)+FIC (component 2)
(§9) The final concentration of each ingredient in ppm (parts per million) after (10-fold dilution) was as follows. Each of these concentrations was tried out to determine the FIC value for (either of) honokiol or magnolol in combination with one of the AMLs.

[1] = test system: Propionibacterium acnes (ATCC 6919); assay: ΣFIC assay against P. acnes
Description: as §1
Propionibacterium acnes (ATCC 6919) was inoculated from freezer into liquid Reinforced Clostridial Medium (RCM, HepoBio: HB0316) for 3 days (anaerobic conditions) growth at 37° C. The suspension containing the microbe was then diluted 10-times with RCM and incubated again under 37° C. for another 3 days. The inoculum was further diluted by RCM to get around 10^4 cells/ml.
as §3, §4, §5, §6, §7, §8, §9

S. aureus (ATCC 12600) = assay: ΣFIC assay against S. aureus
Description: as §1, §2, §3, §4, §5, §6, §7, §8, §9

Row | SMILES | combined effect with AMLs (M. furfur (CBS1878)) | combined effect with AMLs [1] | combined effect with AMLs (S. aureus (ATCC 12600)) | The range of concentration of the ingredient (ppm) where the ΣFIC was less than 0.9: AML (M. furfur (CBS1878); in combination with honokiol) [ppm] | The range of concentration of the ingredient (ppm) where the ΣFIC was less than 0.9: AML (M. furfur (CBS1878); in combination with magnolol) [ppm] | The range of ratio of honokiol/AML (w/w) where ΣFIC was less than 0.9 (M. furfur (CBS1878)) [w/w] | The range of ratio of magnolol/AML (w/w) where ΣFIC was less than 0.9 (M. furfur (CBS1878)) [w/w] | The range of concentration of the ingredient (ppm) where the ΣFIC was less than 0.9: AML ([1]; in combination with honokiol) [ppm] | The range of concentration of the ingredient (ppm) where the ΣFIC was less than 0.9: AML ([1]; in combination with magnolol) [ppm] | The range of ratio of honokiol/AML (w/w) where ΣFIC was less than 0.9 [1] [w/w] | The range of ratio of magnolol/AML (w/w) where ΣFIC was less than 0.9 [1] [w/w] | The range of concentration of the ingredient (ppm) where the ΣFIC was less than 0.9: AML (S. aureus (ATCC 12600); in combination with honokiol) [ppm] | The range of concentration of the ingredient (ppm) where the ΣFIC was less than 0.9: AML (S. aureus (ATCC 12600); in combination with magnolol) [ppm] | The range of ratio of honokiol/AML (w/w) where ΣFIC was less than 0.9 (S. aureus (ATCC 12600)) [w/w] | The range of ratio of magnolol/AML (w/w) where ΣFIC was less than 0.9 (S. aureus (ATCC 12600)) [w/w]
1 | C=CCc1ccc(O)c(-c2ccc(O)c(CC=C)c2)c1 [honokiol, Honokiol] | synergistic effect | synergistic effect | synergistic effect | – | – | – | – | – | – | – | – | – | – | – | –
2 | CCCCCCCCCCCCCCC[C@@H](O)[C@@H](N)CO [dihydrosphingosine, D-erythro-Dihydrosphingosine] | – | – | – | 31.25 to 125 | 15.63 to 125 | 5 to 40 | 5 to 80 | 0.63 to 2.50 | 0.63 to 2.50 | 0.2 to 6.5 | 0.7 to 6.5 | 0.63 to 2.50 | 0.63 to 1.25 | 0.8 to 12.5 | 0.4 to 12.5
3 | CCCCCCCCCCCCCC[C@@H](O)[C@@H](O)[C@@H](N)CO [phytosphingosine, Phytosphingosine] | – | – | – | 15.63 to 62.5 | 3.91 to 62.5 | 10 to 80 | 10 to 320 | 1.25 to 5.00 | 0.63 to 5.00 | 0.2 to 3.2 | 0.4 to 12.5 | 0.63 to 5.00 | 0.63 to 2.50 | 0.4 to 12.5 | 0.2 to 12.5
4 | C=CCc1ccc(O)c(-c2cc(CC=C)ccc2O)c1 [magnolol, Magnolol] | synergistic effect | synergistic effect | synergistic effect | – | – | – | – | – | – | – | – | – | – | – | –
5 | CCCCCCCCC/C=C\CCCCC(=O)O [sapienic acid, Sapienic acid] | – | – | – | 625 to 2500 | 625 to 5000 | 0.25 to 1 | 0.06 to 2 | 1.95 to 3.91 | 1.95 to 3.91 | 0.25 to 1 | 0.25 to 1 | 3.91 to 62.5 | 1.95 to 31.25 | 0.008 to 2 | 0.01 to 4
6 | CCCCCCCCCCCCC/C=C/[C@@H](O)[C@@H](N)CO [sphingosine, D-Sphingosine] | – | – | – | 31.25 to 250 | 31.25 to 125 | 1.25 to 40 | 5 to 40 | 0.31 to 1.25 | 0.31 to 1.25 | 0.7 to 13 | 1.5 to 13 | 0.31 to 1.25 | 0.31 to 0.63 | 0.8 to 25 | 1.5 to 25
7 | CCCCCC/C=C\CCCCCCCC(=O)O [palmitoleic acid, Palmitoleic acid] | – | – | – | 625 to 5000 | 625 to 5000 | 0.06 to 2 | 0.03 to 2 | 1.95 to 7.81 | 1.95 to 7.81 | 0.06 to 1 | 0.1 to 4 | 3.91 to 62.5 | 3.91 to 52.5 | 0.008 to 2 | 0.008 to 2
